Results published in patent publication US6472175B1, “Sialylation of N-linked glycoproteins in the baculovirus expression vector system” (Boyce Thompson Institute For Plant Research, Inc., priority 1999, dated 2002).

Tests used:
[1] = system: mammalian (CHO) cells; conditions: cited from earlier work
[2] = system: Tn-4h cells; experiment: Sialylation of baculovirus-expressed SEAP N-linked glycans, normal phase HPLC of 2-AB-labeled glycans; type: cell-based, Trichoplusia ni; conditions: normal gravity
Procedure: Once the SEAP protein is purified, the oligosaccharide moieties are cleaved from the glycoprotein with peptide N-glycosidase F (cleaves oligomannose, hybrid and complex oligosaccharides with or without terminal sialic acid residues). The oligosaccharides are then bonded to a fluorophore marker. The labeled sugar can be digested with various glycosidases that cleave specific linkages. The samples are analyzed by HPLC. Normal phase HPLC fractionations are carried out with a 50 mM ammonium phosphate, pH 4.4, and acetonitrile gradient on a Glyco Sep-N column (OGS, Oxford, UK) by a technique being known in the art, and incorporated by reference (Guile et al., 1996; Mattu et al., 1998). The Glyco Sep-N column is capable of resolving both neutral and charged sugar residues based on hydrophilicity (related to the hydrodynamic volume and molecular size). To obtain accurate glucose equivalency values, the GlycoSep-N is calibrated with a 2-aminobenzamide (2-AB) labeled dextran hydrolysate ladder and glucose homopolymers. The 2-AB fluorescence is detected and quantified using a Waters^a 474 Scanning Fluorescence Detector (Waters Corporation, MA) at λex 330 nm and λcm 420 nm using a 16 μl flow cell.
Since substrate levels can affect sialylation, it was hypothesized that the microgravity-mediated sialylation might have resulted from an increase in substrate availability. […]

[3] = system: Tn-4h Insect Tissue Culture Cells; experiment: Measurement of total cellular sialic acid (colorimetric assay) in Tn-4h insect tissue culture cells; type: cell-based, Trichoplusia ni
Text: Since substrate levels can affect sialylation, it was hypothesized that the microgravity-mediated sialylation might have resulted from an increase in substrate availability. […] This hypothesis was investigated further by comparing the concentration of sialic acid in cells grown in T-flasks and in HARV bioreactors.

CC(=O)N[C@@H]1C(O)O[C@H](CO)[C@@H](O)[C@@H]1O (stereo partly shown) [ManNAc, N-acetylmannosamine]
effect on sialylation [1]: increase sialylation
sialylated SEAP glycans identified ([2]; 5 mM in medium, stationary T-flasks, Tn-4h cells): five sialylated SEAP glycans were identified
induction of complex, sialylated glycans on a secreted human glycoprotein ([2]; culture media supplemented, insect tissue culture cells): induced to produce complex, sialylated glycans
change of sialic acid level, infected cells ([3]; addition to culture medium, infected Tn-4h cells): not infected cells
change of sialic acid level, uninfected cells ([3]; addition to culture medium, uninfected Tn-4h cells): increased the levels of sialic acid in uninfected cells
nMoles Sialic Acid per mg Cell Protein, Infected ([3]; baculovirus infected Tn-4h cells, T-flask, medium supplemented with 5 mM ManNAc): 98 ± 9 nMoles Sialic Acid per mg Cell Protein
nMoles Sialic Acid per mg Cell Protein, Uninfected ([3]; uninfected Tn-4h cells, T-flask, medium supplemented with 5 mM ManNAc): 62 ± 7 nMoles Sialic Acid per mg Cell Protein
